Columns and labels:
Test in all cases: KINOMEscan
Type in all cases: binding
[1] = molecular target: T1, RSK2 (Kin.Dom.1-N-terminal) (Homo sapiens, UniProt P51812)
T1 construct: RSK2 (Kin.Dom.1-; purchased Eurofins DiscoverX, LLC; host or cells: E. coli BL21-derived host (T7 phage) or HEK-293

[2] = molecular target: T2, JNK1 (Homo sapiens, UniProt P45983)
T2 construct: purchased Eurofins DiscoverX, LLC; host or cells: E. coli (BL21-derived, T7 phage) or HEK-293

[3] = molecular target: T3, MKNK1 (Homo sapiens, UniProt Q9BUB5)
T3 construct: purchased Eurofins DiscoverX, LLC; host or cells: E. coli (BL21-derived, T7 phage) or HEK-293

[4] = molecular target: T4, MAPKAPK2 (Homo sapiens, UniProt P49137)
T4 construct: purchased Eurofins DiscoverX, LLC; host or cells: E. coli (BL21-derived, T7 phage) or HEK-293

[5] = molecular target: T5, ZAP70 (Homo sapiens, UniProt P43403)
T5 construct: purchased Eurofins DiscoverX, LLC; host or cells: E. coli BL21-derived host (T7 phage) or HEK-293
T5 sequence (P43403 1-619): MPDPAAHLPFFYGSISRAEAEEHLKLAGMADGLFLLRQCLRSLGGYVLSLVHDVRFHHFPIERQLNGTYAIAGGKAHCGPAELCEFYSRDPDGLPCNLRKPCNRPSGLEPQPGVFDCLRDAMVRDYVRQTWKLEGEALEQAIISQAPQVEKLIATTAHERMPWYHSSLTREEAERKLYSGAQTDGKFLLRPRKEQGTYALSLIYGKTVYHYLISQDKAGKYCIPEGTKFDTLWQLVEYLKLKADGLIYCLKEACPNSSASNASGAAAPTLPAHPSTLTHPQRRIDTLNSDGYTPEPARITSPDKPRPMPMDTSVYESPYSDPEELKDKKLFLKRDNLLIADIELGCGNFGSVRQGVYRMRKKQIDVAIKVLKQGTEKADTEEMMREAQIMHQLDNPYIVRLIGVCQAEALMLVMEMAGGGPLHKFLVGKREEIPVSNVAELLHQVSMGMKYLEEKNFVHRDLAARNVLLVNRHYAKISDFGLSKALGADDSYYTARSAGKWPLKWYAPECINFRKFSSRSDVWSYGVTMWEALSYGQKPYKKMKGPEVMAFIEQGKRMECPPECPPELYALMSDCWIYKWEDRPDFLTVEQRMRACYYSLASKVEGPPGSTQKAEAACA

[6] = molecular target: T6, RET (Homo sapiens, UniProt P07949)
T6 construct: purchased Eurofins DiscoverX, LLC; host or cells: E. coli BL21-derived host (T7 phage) or HEK-293

[7] = molecular target: T7, BRAF (Homo sapiens, UniProt P15056)
T7 construct: purchased Eurofins DiscoverX, LLC; host or cells: E. coli BL21-derived (T7 phage) or HEK-293

[8] = molecular target: T8, EPHA2 (Homo sapiens, UniProt P29317)
T8 construct: purchased Eurofins DiscoverX, LLC; host or cells: E. coli (T7 phage) or HEK-293

[9] = molecular target: T9, PIK3CA (Homo sapiens, UniProt P42336)
T9 construct: purchased Eurofins DiscoverX, LLC; host or cells: E. coli BL21-derived host (T7 phage) or HEK-293

[10] = molecular target: T10, CDK11 (Homo sapiens, UniProt Q9BWU1)
T10 construct: purchased Eurofins DiscoverX, LLC; host or cells: E. coli BL21-derived (T7 phage) or HEK-293

[11] = molecular target: T11, TIE2 (Homo sapiens, UniProt Q02763)
T11 construct: purchased Eurofins DiscoverX, LLC; host or cells: E. coli BL21-derived host (T7 phage) or HEK-293

[12] = molecular target: T12, p38γ (Homo sapiens, UniProt P53778)
T12 construct: purchased Eurofins DiscoverX, LLC; host or cells: E. coli (BL21-derived, T7 phage) or HEK-293
T12 sequence (P53778 1-367): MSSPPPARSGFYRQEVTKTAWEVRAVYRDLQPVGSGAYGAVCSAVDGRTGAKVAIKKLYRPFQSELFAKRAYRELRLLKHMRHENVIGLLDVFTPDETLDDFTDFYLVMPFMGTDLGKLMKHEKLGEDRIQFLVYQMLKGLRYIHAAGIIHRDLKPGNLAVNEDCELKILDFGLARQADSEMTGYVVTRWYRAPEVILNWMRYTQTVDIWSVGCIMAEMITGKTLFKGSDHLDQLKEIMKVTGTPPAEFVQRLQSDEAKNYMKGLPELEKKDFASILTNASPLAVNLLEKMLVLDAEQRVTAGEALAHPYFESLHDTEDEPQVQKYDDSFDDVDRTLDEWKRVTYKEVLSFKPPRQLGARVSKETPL

[13] = molecular target: T13, CSNK1D (Homo sapiens, UniProt P48730)
T13 construct: purchased Eurofins DiscoverX, LLC; host or cells: E. coli (T7 phage) or HEK-293

[14] = molecular target: T14, ERBB4 (Homo sapiens, UniProt Q15303)
T14 construct: purchased Eurofins DiscoverX, LLC; host or cells: E. coli (T7 phage) or HEK-293

T9 sequence (P42336 whole entry): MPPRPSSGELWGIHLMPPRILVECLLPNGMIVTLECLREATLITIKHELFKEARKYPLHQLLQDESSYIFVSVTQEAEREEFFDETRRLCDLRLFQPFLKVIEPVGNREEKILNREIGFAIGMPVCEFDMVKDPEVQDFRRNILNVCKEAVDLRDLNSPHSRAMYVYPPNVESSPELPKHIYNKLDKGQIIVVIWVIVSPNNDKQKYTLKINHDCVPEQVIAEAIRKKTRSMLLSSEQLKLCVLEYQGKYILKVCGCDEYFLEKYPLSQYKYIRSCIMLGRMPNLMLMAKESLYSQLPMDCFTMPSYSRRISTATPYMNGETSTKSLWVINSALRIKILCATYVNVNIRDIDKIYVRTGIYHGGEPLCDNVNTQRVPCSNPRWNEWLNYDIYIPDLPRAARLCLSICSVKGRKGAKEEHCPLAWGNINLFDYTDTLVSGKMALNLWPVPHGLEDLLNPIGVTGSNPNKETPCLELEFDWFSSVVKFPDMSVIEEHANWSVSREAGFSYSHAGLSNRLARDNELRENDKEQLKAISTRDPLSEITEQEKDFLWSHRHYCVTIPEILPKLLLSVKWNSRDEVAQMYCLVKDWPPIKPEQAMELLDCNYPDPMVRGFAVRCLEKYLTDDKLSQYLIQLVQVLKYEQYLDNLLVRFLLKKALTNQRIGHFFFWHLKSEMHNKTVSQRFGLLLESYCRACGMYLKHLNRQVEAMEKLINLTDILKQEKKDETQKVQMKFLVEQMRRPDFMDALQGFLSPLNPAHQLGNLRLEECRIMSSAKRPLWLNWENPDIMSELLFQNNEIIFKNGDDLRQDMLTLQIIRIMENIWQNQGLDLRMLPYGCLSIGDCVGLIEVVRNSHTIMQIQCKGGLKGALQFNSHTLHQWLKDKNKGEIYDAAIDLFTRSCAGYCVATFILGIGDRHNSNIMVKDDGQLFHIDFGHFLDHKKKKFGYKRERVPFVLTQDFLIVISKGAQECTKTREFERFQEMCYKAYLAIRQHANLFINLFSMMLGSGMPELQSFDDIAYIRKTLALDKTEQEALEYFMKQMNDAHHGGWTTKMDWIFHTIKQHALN
T11 sequence (Q02763 23-1124): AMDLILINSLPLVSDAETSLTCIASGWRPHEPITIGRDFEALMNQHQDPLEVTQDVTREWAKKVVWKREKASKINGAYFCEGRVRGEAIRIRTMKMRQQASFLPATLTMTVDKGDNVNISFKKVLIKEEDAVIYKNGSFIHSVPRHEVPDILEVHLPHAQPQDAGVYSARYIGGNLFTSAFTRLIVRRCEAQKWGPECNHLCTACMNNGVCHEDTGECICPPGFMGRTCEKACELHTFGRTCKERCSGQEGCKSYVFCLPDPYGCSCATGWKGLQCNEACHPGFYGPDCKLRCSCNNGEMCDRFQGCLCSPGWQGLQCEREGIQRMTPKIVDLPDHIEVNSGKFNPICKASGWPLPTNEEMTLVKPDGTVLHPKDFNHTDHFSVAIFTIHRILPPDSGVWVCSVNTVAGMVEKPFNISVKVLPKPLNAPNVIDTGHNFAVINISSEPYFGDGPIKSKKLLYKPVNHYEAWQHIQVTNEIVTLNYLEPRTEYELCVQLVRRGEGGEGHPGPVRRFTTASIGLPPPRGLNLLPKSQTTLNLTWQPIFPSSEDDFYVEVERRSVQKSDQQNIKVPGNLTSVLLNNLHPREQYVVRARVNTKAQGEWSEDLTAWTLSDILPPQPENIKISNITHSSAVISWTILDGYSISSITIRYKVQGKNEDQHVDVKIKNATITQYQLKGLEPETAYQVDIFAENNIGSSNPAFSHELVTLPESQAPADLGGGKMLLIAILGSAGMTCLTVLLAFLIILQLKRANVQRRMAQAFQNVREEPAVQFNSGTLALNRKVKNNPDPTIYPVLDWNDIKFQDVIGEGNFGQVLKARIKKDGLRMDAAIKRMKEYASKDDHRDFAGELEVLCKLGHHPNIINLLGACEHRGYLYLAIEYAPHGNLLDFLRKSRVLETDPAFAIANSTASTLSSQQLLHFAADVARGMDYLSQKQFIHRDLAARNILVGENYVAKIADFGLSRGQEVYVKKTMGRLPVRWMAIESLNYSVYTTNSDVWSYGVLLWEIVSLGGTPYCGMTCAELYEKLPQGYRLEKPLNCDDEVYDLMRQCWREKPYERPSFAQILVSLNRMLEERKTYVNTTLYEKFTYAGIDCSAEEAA
T4 sequence (P49137 whole entry): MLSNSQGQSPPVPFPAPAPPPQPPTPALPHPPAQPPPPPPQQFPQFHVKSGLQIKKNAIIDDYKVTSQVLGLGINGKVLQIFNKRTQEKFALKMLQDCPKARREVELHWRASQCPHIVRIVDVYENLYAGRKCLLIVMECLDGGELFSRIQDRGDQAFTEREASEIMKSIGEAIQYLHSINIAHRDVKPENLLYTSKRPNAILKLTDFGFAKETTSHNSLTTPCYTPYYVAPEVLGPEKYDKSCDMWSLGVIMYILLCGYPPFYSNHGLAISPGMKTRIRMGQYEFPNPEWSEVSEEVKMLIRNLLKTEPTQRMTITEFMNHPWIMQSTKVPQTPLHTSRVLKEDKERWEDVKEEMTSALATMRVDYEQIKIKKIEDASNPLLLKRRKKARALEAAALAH
T1 sequence (P51812 68-327 limits assumed): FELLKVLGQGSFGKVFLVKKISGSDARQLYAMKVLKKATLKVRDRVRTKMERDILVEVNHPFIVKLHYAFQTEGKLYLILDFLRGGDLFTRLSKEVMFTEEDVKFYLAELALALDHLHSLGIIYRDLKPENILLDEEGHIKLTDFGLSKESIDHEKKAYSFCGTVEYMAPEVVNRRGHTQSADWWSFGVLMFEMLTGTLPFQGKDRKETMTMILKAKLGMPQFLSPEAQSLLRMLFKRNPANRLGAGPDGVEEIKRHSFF
T6 sequence (P07949 29-1114): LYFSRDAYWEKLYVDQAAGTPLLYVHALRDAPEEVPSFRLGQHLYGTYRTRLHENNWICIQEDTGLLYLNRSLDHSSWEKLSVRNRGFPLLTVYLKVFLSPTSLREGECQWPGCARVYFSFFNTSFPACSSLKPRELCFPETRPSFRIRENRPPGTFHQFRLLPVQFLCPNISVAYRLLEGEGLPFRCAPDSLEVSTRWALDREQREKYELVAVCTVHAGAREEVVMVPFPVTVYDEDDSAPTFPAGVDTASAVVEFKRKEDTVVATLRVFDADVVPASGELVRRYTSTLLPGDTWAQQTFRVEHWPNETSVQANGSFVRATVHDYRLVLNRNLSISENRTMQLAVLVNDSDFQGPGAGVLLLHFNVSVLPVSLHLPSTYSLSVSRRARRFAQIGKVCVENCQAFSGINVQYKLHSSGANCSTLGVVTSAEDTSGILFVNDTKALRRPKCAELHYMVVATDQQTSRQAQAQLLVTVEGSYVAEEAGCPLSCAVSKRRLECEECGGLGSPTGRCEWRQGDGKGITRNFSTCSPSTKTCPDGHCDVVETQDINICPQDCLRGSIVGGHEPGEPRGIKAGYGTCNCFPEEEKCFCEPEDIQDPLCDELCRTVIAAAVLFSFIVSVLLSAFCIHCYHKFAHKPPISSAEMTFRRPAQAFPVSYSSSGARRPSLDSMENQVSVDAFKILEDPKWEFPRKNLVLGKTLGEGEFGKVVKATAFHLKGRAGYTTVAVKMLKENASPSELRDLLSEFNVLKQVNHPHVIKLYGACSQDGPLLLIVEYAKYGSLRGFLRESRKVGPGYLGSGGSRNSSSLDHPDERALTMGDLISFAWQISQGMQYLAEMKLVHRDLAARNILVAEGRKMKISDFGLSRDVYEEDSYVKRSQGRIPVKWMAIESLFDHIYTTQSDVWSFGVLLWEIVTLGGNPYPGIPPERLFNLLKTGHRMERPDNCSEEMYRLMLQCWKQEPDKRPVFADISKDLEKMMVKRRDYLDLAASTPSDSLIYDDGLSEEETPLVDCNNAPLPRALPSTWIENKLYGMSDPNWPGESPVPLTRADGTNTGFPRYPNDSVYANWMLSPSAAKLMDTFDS
T3 sequence (Q9BUB5 whole entry): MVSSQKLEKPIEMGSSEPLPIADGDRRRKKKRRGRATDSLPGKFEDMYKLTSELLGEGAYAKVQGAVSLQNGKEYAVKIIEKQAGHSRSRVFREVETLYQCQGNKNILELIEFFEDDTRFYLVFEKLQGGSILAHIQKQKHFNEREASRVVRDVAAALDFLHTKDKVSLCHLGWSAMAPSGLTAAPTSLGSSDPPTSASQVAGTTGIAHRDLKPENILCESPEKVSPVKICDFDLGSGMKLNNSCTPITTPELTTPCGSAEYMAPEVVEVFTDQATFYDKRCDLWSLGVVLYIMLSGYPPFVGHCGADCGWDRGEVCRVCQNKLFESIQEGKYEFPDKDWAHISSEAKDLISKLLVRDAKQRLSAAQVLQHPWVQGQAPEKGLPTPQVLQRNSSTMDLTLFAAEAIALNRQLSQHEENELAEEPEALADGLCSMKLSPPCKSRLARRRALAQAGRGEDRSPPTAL
T10 sequence (Q9BWU1 whole entry): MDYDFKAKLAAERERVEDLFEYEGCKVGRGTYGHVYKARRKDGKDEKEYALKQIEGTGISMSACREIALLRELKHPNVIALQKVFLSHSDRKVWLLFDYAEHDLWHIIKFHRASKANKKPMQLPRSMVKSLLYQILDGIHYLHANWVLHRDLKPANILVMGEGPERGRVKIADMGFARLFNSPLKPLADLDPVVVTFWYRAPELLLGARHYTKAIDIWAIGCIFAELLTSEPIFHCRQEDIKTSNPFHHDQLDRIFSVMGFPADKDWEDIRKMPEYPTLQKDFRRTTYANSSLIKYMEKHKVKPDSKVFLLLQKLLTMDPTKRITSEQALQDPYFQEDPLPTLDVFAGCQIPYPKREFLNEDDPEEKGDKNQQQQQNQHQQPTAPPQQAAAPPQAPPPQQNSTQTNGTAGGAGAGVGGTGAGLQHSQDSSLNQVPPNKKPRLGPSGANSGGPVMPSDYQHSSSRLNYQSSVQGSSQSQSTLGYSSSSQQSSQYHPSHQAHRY

Row | Compound | RA @ 1000nM [1] [%] | RA @ 10000nM [1] [%] | RA @ 1000nM [2] [%] | RA @ 10000nM [2] [%] | RA @ 1000nM [3] [%] | RA @ 10000nM [3] [%] | RA @ 1000nM [4] [%] | RA @ 10000nM [4] [%] | RA @ 1000nM [5] [%] | RA @ 10000nM [5] [%] | RA @ 1000nM [6] [%] | RA @ 10000nM [6] [%] | RA @ 1000nM [7] [%] | RA @ 10000nM [7] [%] | RA @ 1000nM [8] [%] | RA @ 10000nM [8] [%] | RA @ 1000nM [9] [%] | RA @ 10000nM [9] [%] | RA @ 1000nM [10] [%] | RA @ 10000nM [10] [%] | further results
1 | CN(C)CCNC(=O)c1cc2c(cnn2CC2CCCCC2)cc1Cc1ccc(F)cc1F [Compound 95, 1-(Cyclohexylmethyl)-5-(2,4-difluorobenzyl)-N-(2-(dimethylamino)ethyl)-1H-indazole-6-carboxamide] | 94 | 94 | 100 | 27 | 100 | 100 | 100 | 100 | 100 | 100 | 100 | 100 | 100 | 100 | 100 | 100 | 100 | 100 | 92 | 100 | RA @ 1000nM [11]: 90%; RA @ 10000nM [11]: 100%; RA @ 1000nM [12]: 100%; RA @ 10000nM [12]: 99%; RA @ 1000nM [13]: 93%; RA @ 10000nM [13]: 84%; RA @ 1000nM [14]: 93%; RA @ 10000nM [14]: 81%
2 | CC(C)Cn1ncc2cc(Cc3ccc(F)cc3F)c(C(=O)NCCN(C)C)cc21 [Compound 94, 5-(2,4-Difluorobenzyl)-N-(2-(dimethylamino)ethyl)-1-isobutyl-1H-indazole-6-carboxamide] | 86 | 65 | 77 | 41 | 100 | 100 | 100 | 84 | 100 | 79 | 100 | 100 | 100 | 100 | 97 | 100 | 77 | 95 | 100 | 89 | RA @ 1000nM [11]: 100%; RA @ 10000nM [11]: 100%; RA @ 1000nM [12]: 93%; RA @ 10000nM [12]: 94%; RA @ 1000nM [13]: 86%; RA @ 10000nM [13]: 79%; RA @ 1000nM [14]: 85%; RA @ 10000nM [14]: 83%
